Where two headings read alike, the source gives them in different places.
Experiments:
[1] = system: DLD1 BRCA2 (−/−) cells; experiment: DLD1 viability assay (CellTiter-Glo, 7 days), DLD1 BRCA2 (−/−); type: cell-based; conditions: read-out: Viability IC50 (μM) DLD1 BRCA2 null
[2] = system: DLD1 WT cells; experiment: DLD1 viability assay (CellTiter-Glo, 7 days), DLD1 WT; type: cell-based
[3] = molecular target: T1, biotinylated Avi-POLΘ[2-894] (Homo sapiens, UniProt O75417); experiment: ATPase assay (ADP-Glo): POLΘ-mediated ATP hydrolysis; conditions: read-out: Biochemical ATPase ADPGlo IC50
T1 construct: 1 nM biotinylated Avi-POLΘ[2-894]
T1 sequence (O75417 2-894 limits assumed): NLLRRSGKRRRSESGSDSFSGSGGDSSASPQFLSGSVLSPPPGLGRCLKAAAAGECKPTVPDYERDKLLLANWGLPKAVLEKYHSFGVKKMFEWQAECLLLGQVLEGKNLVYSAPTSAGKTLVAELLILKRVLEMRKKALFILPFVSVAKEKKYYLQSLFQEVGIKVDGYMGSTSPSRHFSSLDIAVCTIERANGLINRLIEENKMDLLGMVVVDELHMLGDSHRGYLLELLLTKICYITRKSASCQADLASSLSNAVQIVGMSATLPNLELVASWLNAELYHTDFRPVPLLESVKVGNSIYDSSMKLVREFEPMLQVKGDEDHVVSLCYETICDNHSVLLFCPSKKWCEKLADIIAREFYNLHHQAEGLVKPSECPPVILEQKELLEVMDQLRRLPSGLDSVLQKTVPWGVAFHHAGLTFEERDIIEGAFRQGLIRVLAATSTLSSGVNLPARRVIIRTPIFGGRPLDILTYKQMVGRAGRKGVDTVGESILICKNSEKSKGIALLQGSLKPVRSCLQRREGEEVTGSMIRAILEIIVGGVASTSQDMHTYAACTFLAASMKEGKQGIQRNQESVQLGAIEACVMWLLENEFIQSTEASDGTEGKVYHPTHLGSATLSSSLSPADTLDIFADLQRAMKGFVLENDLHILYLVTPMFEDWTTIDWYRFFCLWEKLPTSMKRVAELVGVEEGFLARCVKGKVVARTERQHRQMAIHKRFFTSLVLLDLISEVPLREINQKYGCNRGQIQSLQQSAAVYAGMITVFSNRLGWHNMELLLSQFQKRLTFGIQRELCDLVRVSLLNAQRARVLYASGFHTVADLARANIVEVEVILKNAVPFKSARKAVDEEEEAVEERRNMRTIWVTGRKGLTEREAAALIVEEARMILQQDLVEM

IC50 ([1]; Homo sapiens, DLD-1, 168 h) [µM] | IC50 ([2]; Homo sapiens, DLD-1, 168 h) [µM] | IC50 [3] [µM] | Compound | IC50 [1] [µM] | IC50 [2] [µM]
> 2 | > 10 | 0.001 to 0.015 | COc1cnc(Cl)cc1-c1cc(C)ncc1C(=O)Nc1nn2cc(C(=O)N[C@H]3CCCC[C@@H]3O)nc2s1 (racemic) [Example 281] |  | 
0.25 to 0.5 | > 10 | 0.001 to 0.015 | COc1cnc(Cl)cc1-c1cc(C)ncc1C(=O)Nc1nn2cc(C(=O)NC3CCC3)nc2s1 (racemic) [Example 288] |  | 
0.1 to 0.25 | > 10 | 0.001 to 0.015 | COc1cnc(Cl)cc1-c1cc(C)ncc1C(=O)Nc1nc2ncc(C3CCOC3)nc2s1 (racemic) [Example 510, (Racemic)-2′-chloro-5′-methoxy-6-methyl-N-(6-(tetrahydrofuran-3-yl)thiazolo[4,5-b]pyrazin-2-yl)-[4,4′-bipyridine]-3-carboxamide] |  | 
0.001 to 0.1 | > 10 | 0.001 to 0.015 | COc1cnc(Cl)cc1-c1cc(C)ncc1C(=O)Nc1nc2ncc(C34CCC(C#N)(CC3)CC4)nc2s1 (single isomer, unassigned) [Example 359, 2′-chloro-N-(6-(4-cyanobicyclo[2.2.2]octan-1-yl)thiazolo[4,5-b]pyrazin-2-yl)-5′-methoxy-6-methyl-[4,4′-bipyridine]-3-carboxamide] |  | 
0.001 to 0.1 | > 10 | 0.001 to 0.015 | COc1cnc(Cl)cc1-c1cc(C)ncc1C(=O)Nc1nc2ncc(C34CC(C#N)(C3)C4)nc2s1 (single isomer, unassigned) [Example 360, 2′-chloro-N-(6-(3-cyanobicyclo[1.1.1]pentan-1-yl)thiazolo[4,5-b]pyrazin-2-yl)-5′-methoxy-6-methyl-[4,4′-bipyridine]-3-carboxamide] |  | 
0.001 to 0.1 | > 10 | 0.001 to 0.015 | COc1cnc(Cl)cc1-c1cc(C)ncc1C(=O)Nc1nc2ncc(C3CC4CC3CC4C#N)nc2s1 (single isomer, unassigned) [Example 361, 2′-chloro-N-(6-(5-cyanobicyclo[2.2.1]heptan-2-yl)thiazolo[4,5-b]pyrazin-2-yl)-5′-methoxy-6-methyl-[4,4′-bipyridine]-3-carboxamide] |  | 
0.001 to 0.1 | > 10 | 0.001 to 0.015 | COc1cnc(Cl)cc1-c1cc(C)ncc1C(=O)Nc1nc2ncc([C@@H]3CC4CC3C[C@H]4C#N)nc2s1 (single isomer, unassigned) [Example 361A, 2′-chloro-N-(6-((2R or S,5R or S)-5-cyanobicyclo[2.2.1]heptan-2-yl)thiazolo[4,5-b]pyrazin-2-yl)-5′-methoxy-6-methyl-[4,4′-bipyridine]-3-carboxamide] |  | 
0.001 to 0.1 | > 10 | 0.001 to 0.015 | COc1cnc(Cl)cc1-c1cc(C)ncc1C(=O)Nc1nc2ncc([C@H]3CC4CC3C[C@@H]4C#N)nc2s1 (single isomer, unassigned) [Example 361B, 2′-chloro-N-(6-((2S or R,5S or R)-5-cyanobicyclo[2.2.1]heptan-2-yl)thiazolo[4,5-b]pyrazin-2-yl)-5′-methoxy-6-methyl-[4,4′-bipyridine]-3-carboxamide] |  | 
0.001 to 0.1 | > 10 | 0.001 to 0.015 | COc1cnc(Cl)cc1-c1cc(C)ncc1C(=O)Nc1nc2ncc([C@@H]3CC4CC3C[C@@H]4C#N)nc2s1 (single isomer, unassigned) [Example 361C, 2′-chloro-N-(6-((2R or S,5S or R)-5-cyanobicyclo[2.2.1]heptan-2-yl)thiazolo[4,5-b]pyrazin-2-yl)-5′-methoxy-6-methyl-[4,4′-bipyridine]-3-carboxamide] |  | 
0.001 to 0.1 | > 10 | 0.001 to 0.015 | COc1cnc(Cl)cc1-c1cc(C)ncc1C(=O)Nc1nc2ncc([C@H]3CC4CC3C[C@H]4C#N)nc2s1 (single isomer, unassigned) [Example 361D, 2′-chloro-N-(6-((2S or R,5R or S)-5-cyanobicyclo[2.2.1]heptan-2-yl)thiazolo[4,5-b]pyrazin-2-yl)-5′-methoxy-6-methyl-[4,4′-bipyridine]-3-carboxamide] |  | 
0.001 to 0.1 | > 10 | 0.001 to 0.015 | COc1cnc(Cl)cc1-c1cc(C)ncc1C(=O)Nc1nc2ncc([C@@H]3CC[C@@H](CO)C3)nc2s1 (single isomer, unassigned) [Example 498, 2′-chloro-N-(6-((1R or S,3R and S)-3-(hydroxymethyl)cyclopentyl)thiazolo[4,5-b]pyrazin-2-yl)-5′-methoxy-6-methyl-[4,4′-bipyridine]-3-carboxamide] |  | 
0.1 to 0.25 | > 10 | 0.001 to 0.015 | COc1cnc(Cl)cc1-c1cc(C)ncc1C(=O)Nc1nc2ncc(C3CCOC3)cc2s1 (single isomer, unassigned) [Example 515, (R or S)-2′-chloro-5′-methoxy-6-methyl-N-(6-(tetrahydrofuran-3-yl)thiazolo[4,5-b]pyridin-2-yl)-[4,4′-bipyridine]-3-carboxamide] |  | 
0.25 to 0.5 | > 10 | 0.001 to 0.015 | COc1ccccc1-c1cc(C)ncc1C(=O)Nc1nc2ncc(-c3ccnc(C)c3)cc2s1 [Example 87] |  | 
0.5 to 2 | 0.001 to 2.5 | 0.05 to 0.15 | COc1ccccc1-c1cc(C)ncc1C(=O)Nc1nc2ccc(-c3ccccn3)cc2s1 [Example 121, 4-(2-methoxyphenyl)-6-methyl-N-(6-(pyridin-2-yl)benzo[d]thiazol-2-yl)nicotinamide] |  | 
> 2 | > 10 | 0.001 to 0.015 | COc1cnc(Cl)cc1-c1cc(C)ncc1C(=O)Nc1nn2cc(C(=O)N[C@H]3CCOC3)nc2s1 [Example 291, (S)-2-(2′-chloro-5′-methoxy-6-methyl-[4,4′-bipyridine]-3-carboxamido)-N-(tetrahydrofuran-3-yl)imidazo[2,1-b][1,3,4]thiadiazole-6-carboxamide] |  | 
> 2 | > 10 | 0.001 to 0.015 | COc1cnc(Cl)cc1-c1cc(C)ncc1C(=O)Nc1nn2cc(C(=O)N[C@H]3C[C@@H](O)C3)nc2s1 [Example 308] |  | 
0.001 to 0.1 | > 10 | 0.001 to 0.015 | COc1cnc(Cl)cc1-c1cc(C)ncc1C(=O)Nc1nc2ncc(N3CCO[C@H]4CCC[C@H]43)nc2s1 [Example 397, 2′-chloro-N-(6-((4aR,7aS)-hexahydrocyclopenta[b][1,4]oxazin-4(4aH)-yl)thiazolo[4,5-b]pyrazin-2-yl)-5′-methoxy-6-methyl-[4,4′-bipyridine]-3-carboxamide] |  | 
0.001 to 0.1 | > 10 | 0.001 to 0.015 | COc1cnc(Cl)cc1-c1cc(C)ncc1C(=O)Nc1nc2ncc([C@H]3CC[C@H](C#N)CC3)nc2s1 [Example 454, 2′-chloro-N-(6-((1r,4r)-4-cyanocyclohexyl)thiazolo[4,5-b]pyrazin-2-yl)-5′-methoxy-6-methyl-[4,4′-bipyridine]-3-carboxamide] |  | 
0.1 to 0.25 | > 10 | 0.001 to 0.015 | COc1cnc(Cl)cc1-c1cc(C)ncc1C(=O)Nc1nc2ncc([C@@H]3CC[C@H](CO)C3)nc2s1 [Example 499, 2′-chloro-N-(6-((1R,3S)-3-(hydroxymethyl)cyclopentyl)thiazolo[4,5-b]pyrazin-2-yl)-5′-methoxy-6-methyl-[4,4′-bipyridine]-3-carboxamide] |  | 
0.001 to 0.1 | > 10 | 0.001 to 0.015 | COc1cnc(Cl)cc1-c1cc(C)ncc1C(=O)Nc1nc2ncc(N3CCC(OC(F)F)CC3)nc2s1 [Example 502, 2′-chloro-N-(6-(4-(difluoromethoxy)piperidin-1-yl)thiazolo[4,5-b]pyrazin-2-yl)-5′-methoxy-6-methyl-[4,4′-bipyridine]-3-carboxamide] |  | 
 |  | 0.001 to 0.015 | COc1cnc(Cl)cc1-c1cc(C)ncc1C(=O)Nc1nc2ncc(N3CC(O)C3)nc2s1 [Example 503, 2′-chloro-N-(6-(3-hydroxyazetidin-1-yl)thiazolo[4,5-b]pyrazin-2-yl)-5′-methoxy-6-methyl-[4,4′-bipyridine]-3-carboxamide] |  | 
0.001 to 0.1 | > 10 | 0.001 to 0.015 | COc1cnc(Cl)cc1-c1cc(C)ncc1C(=O)Nc1nc2ncc(N3CCC(O)(C(F)F)CC3)nc2s1 [Example 504, 2′-chloro-N-(6-(4-(difluoromethyl)-4-hydroxypiperidin-1-yl)thiazolo[4,5-b]pyrazin-2-yl)-5′-methoxy-6-methyl-[4,4′-bipyridine]-3-carboxamide] |  | 
 |  | 0.001 to 0.015 | COc1cnc(Cl)cc1-c1cc(C)ncc1C(=O)Nc1nc2ncc(N3CC(CO)C3)nc2s1 [Example 505, 2′-chloro-N-(6-(3-(hydroxymethyl)azetidin-1-yl)thiazolo[4,5-b]pyrazin-2-yl)-5′-methoxy-6-methyl-[4,4′-bipyridine]-3-carboxamide] |  | 
 |  | 0.015 to 0.05 | Cc1cc(-c2c3cnccc3nn2C)c(C(=O)Nc2nc3ncc(-c4ccncc4)nc3s2)cn1 [Example 513, 6-methyl-4-(2-methyl-2H-pyrazolo[4,3-c]pyridin-3-yl)-N-(6-(pyridin-4-yl)thiazolo[4,5-b]pyrazin-2-yl)nicotinamide] |  | 
 |  | > 0.9 | Cc1cc(-c2nn(C)c3ccncc23)c(C(=O)Nc2nc3ncc(-c4ccncc4)nc3s2)cn1 [Example 517, 6-methyl-4-(1-methyl-1H-pyrazolo[4,3-c]pyridin-3-yl)-N-(6-(pyridin-4-yl)thiazolo[4,5-b]pyrazin-2-yl)nicotinamide] |  | 

Compound | IC50 ([1]; Homo sapiens, DLD-1, 168 h) [µM] | IC50 ([2]; Homo sapiens, DLD-1, 168 h) [µM] | IC50 [3] [µM] | IC50 [1] [µM] | IC50 [2] [µM]
COc1cnc(Cl)cc1-c1cc(C)ncc1C(=O)Nc1nn2cc(C(=O)N[C@H]3CC[C@H](O)C3)nc2s1 [Example 21] |  |  | 0.001 to 0.015 | 0.5 to 2 | > 10
COc1cnc(Cl)cc1-c1cc(C)ncc1C(=O)Nc1nn2cc(C(=O)N[C@@H]3CCCC[C@@H]3O)nc2s1 [Example 22] |  |  | 0.001 to 0.015 | > 2 | > 10

Reference: patent US20260015360A1 (MOMA Therapeutics, Inc., priority 2023, published 2026)
